Calls of active or inactive are those of the source.
Tests used:
[1] = Luminescence Cell-Based Dose Confirmation HTS to Identify Activators of 5'UTR Stem-Loop Driven Alpha-Synuclein mRNA Translation in H4 Neuroglioblastoma Cells. [Related pubchem assays: 1829 (Project Summary), 1814 (Primary HTS)]; assay type: functional
[2] = Luminescence Cell-Based Dose Response HTS to Identify Activators of Luciferase Translation or Activity in H4 […] Cells. [Related pubchem assays: 1829 (Project Summary), 1814 (Primary HTS)]; assay type: functional
[3] = target: T1, Protein skinhead-1 (Caenorhabditis elegans, UniProt P34707); assay type: functional
T1 sequence (P34707 whole entry): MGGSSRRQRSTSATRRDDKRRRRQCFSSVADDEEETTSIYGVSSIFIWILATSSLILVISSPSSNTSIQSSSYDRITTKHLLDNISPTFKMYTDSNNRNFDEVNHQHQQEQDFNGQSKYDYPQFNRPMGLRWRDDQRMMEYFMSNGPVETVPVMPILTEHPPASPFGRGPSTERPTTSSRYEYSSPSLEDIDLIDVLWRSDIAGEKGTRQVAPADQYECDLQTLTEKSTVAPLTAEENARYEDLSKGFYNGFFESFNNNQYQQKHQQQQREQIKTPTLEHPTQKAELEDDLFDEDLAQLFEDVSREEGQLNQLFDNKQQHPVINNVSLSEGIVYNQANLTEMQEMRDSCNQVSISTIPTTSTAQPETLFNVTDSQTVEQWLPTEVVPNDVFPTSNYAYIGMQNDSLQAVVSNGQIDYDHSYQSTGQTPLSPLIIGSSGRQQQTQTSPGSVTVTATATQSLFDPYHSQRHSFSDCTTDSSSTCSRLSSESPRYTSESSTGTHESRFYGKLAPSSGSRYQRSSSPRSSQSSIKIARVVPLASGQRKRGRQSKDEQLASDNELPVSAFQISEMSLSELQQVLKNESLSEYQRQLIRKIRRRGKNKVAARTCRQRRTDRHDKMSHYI

[4] = target: T2, Apoptotic protease-activating factor 1 (Homo sapiens, UniProt O14727); assay type: functional
T2 sequence (O14727 whole entry): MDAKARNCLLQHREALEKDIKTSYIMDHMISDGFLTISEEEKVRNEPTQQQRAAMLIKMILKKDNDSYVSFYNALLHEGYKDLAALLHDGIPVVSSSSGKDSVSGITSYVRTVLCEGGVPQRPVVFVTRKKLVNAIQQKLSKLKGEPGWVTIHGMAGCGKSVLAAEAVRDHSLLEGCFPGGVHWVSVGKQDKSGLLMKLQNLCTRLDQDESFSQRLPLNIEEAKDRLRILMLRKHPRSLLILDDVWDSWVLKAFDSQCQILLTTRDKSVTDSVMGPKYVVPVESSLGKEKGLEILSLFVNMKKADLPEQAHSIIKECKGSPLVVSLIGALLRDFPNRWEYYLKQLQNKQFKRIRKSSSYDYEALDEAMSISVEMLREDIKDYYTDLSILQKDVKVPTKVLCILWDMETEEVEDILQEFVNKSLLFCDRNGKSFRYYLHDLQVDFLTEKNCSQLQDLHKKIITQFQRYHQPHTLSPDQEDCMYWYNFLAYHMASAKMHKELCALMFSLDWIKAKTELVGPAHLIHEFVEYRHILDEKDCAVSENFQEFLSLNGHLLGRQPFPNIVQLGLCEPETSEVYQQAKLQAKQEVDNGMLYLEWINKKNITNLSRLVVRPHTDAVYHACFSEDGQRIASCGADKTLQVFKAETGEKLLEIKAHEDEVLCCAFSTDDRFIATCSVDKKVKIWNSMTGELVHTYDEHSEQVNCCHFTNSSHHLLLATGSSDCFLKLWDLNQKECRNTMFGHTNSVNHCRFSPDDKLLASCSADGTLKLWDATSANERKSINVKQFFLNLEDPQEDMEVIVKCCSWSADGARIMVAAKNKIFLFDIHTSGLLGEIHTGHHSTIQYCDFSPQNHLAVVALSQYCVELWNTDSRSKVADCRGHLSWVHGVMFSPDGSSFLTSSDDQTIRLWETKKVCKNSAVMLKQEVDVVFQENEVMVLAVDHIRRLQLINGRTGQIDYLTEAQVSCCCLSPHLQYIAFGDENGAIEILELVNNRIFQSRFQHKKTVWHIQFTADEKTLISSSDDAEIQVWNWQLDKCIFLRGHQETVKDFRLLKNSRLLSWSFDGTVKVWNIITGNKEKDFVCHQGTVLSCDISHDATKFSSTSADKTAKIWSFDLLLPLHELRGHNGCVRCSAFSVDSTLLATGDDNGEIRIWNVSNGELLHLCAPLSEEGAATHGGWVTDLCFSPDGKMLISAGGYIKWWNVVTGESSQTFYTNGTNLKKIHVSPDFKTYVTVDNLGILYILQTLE

[5] = test system: H4; test: Luminescence Cell-Based Dose Response HTS to Identify Activators of 5'UTR Stem-Loop Driven Prion Protein mRNA Translation in H4 Neuroglioblastoma Cells. [Related pubchem assays: 1829 (Project Summary), 1814 (Primary HTS)]; assay type: functional; details: Homo sapiens
[6] = target: Cytochrome P450 3A4 (Homo sapiens, UniProt P08684);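 further: CYP3A4 tested as one member of a cytochrome P450 panel screen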
Sequence of Cytochrome P450 3A4 (P08684 whole entry): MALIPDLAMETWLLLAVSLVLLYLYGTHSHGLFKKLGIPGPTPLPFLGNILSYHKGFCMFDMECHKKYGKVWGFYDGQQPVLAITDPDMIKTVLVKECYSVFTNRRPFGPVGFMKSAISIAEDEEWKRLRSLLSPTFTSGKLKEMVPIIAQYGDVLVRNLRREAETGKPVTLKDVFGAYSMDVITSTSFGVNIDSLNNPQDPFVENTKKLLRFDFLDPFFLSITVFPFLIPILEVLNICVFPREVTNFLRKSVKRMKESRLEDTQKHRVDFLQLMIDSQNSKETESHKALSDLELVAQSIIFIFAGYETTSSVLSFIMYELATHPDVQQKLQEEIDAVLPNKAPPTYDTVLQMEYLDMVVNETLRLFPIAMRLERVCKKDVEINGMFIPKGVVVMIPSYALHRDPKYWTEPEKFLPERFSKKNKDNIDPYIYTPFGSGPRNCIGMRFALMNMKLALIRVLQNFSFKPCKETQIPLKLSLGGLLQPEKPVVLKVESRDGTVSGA

[7] = target: T3, Microphthalmia-associated transcription factor (Homo sapiens, UniProt O75030); test: TRPM1 promoter luciferase signal decrease, dose response, MITF inhibitor project, cell-based, SK-MEL-5, cherry-picked, set 3 (AID 493073); assay type: functional
T3 sequence (O75030 whole entry): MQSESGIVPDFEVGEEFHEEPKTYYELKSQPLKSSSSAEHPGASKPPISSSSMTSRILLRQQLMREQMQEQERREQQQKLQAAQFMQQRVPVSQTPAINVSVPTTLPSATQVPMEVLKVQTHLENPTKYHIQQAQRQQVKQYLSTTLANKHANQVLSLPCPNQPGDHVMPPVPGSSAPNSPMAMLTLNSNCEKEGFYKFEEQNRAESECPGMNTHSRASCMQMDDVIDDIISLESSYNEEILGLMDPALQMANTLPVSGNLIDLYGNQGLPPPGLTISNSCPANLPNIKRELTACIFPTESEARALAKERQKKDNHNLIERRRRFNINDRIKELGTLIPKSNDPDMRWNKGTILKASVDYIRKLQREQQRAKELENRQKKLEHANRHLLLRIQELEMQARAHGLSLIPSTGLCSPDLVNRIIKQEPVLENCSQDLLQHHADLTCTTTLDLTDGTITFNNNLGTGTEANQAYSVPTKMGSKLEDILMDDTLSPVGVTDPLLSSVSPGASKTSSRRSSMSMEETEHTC

[8] = test system: A-375; test: A375 melanoma cell viability reduction, dose response, counter-screen for MITF modulator project, cherry-pick samples, set 2 (AID 540335); assay type: functional, cell-based; details: Homo sapiens
[9] = target: T4, Melanocortin receptor 4 (Homo sapiens, UniProt P32245); assay type: functional, cell-based;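 further: Cell-based assay with luminescence read-out, confirmatory dose-response testing for agonist activity of biased ligands at MC4R; human U2OS cells with tagged receptor and beta-arrestin; potency of agonists that increase receptor coupling to beta-arrestin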
T4 sequence (P32245 whole entry): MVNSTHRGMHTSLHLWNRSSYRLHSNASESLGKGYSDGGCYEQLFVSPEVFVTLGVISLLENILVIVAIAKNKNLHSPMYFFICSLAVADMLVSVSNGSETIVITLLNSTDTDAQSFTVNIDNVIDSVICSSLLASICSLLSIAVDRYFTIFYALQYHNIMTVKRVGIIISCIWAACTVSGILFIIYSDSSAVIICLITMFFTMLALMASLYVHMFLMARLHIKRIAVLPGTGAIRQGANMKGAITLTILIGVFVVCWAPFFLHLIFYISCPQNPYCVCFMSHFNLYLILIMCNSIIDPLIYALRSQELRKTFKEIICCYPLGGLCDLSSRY

[10] = target: T4, Melanocortin receptor 4; test: MC4R antagonist potency on cAMP, dose response, cell-based, TR-FRET, biased antagonists (AID 602298); assay type: functional;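 further: antagonist potency against agonist-stimulated cAMP production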
[11] = Shn3 3'UTR reporter inhibitors, dose response, cell-based, Clone20 osteoblasts, firefly luciferase, cherry-picked (AID 624132); assay type: functional;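 further: firefly luciferase luminescence from reporter carrying the Shn3 3'UTR in osteoblasts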
[12] = nonselective inhibitors of cellular cAMP signaling, dose response, counter-screen for MC4R biased antagonist project, cell-based, TR-FRET cAMP detection (AID 602305); assay type: functional;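 further: U2OS cells stimulated with forskolin near its EC80 as the cAMP inducer; potency is for inhibition of forskolin-stimulated cAMP signaling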
[13] = test system: INS1; test: beta cell apoptosis inhibitors, cytokine rescue, dose response, luminescence, retest (AID 449756); assay type: functional, cell-based; details: Rattus norvegicus;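 further: cell death triggered by IL-1 beta plus TNF-alpha plus IFN-gamma mixture; protective hits raise ATP signal compared with cytokine alone wells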
[14] = control 3'UTR Renilla luciferase suppression, dose response, counter-screen for Shn3 inhibitor project, cell-based, Clone20-Shn3RL, cherry-picked (AID 624133); assay type: functional
[15] = Luminescence Cell-Based Dose Retest to Confirm Inhibitors of Cancer Stem Cells. [Related pubchem assays (depositor defined):AID2717, AID2721]; assay type: functional; details: Homo sapiens
[16] = HepG2 cell cytotoxicity, dose response, cytotoxicity control for Shn3 inhibitor project, CellTiter-Glo, cherry-picked (AID 624134); assay type: functional, cell-based
[17] = Fluorescence-based cell-based high throughput dose response assay for inhibitors of the interaction of nucleotide-binding oligomerization domain containing 2 (NOD2) and the receptor-interacting serine-threonine kinase 2 (RIPK2).; assay type: functional; details: Homo sapiens
[18] = target: Genome polyprotein (dengue virus type 2, UniProt P29990); test: Dengue-2 NS5 methyltransferase inhibitors, primary screen, biochemical, confirmation dose response (AID 588689); assay type: functional
Sequence of Genome polyprotein (P29990 2492-3391 limits assumed): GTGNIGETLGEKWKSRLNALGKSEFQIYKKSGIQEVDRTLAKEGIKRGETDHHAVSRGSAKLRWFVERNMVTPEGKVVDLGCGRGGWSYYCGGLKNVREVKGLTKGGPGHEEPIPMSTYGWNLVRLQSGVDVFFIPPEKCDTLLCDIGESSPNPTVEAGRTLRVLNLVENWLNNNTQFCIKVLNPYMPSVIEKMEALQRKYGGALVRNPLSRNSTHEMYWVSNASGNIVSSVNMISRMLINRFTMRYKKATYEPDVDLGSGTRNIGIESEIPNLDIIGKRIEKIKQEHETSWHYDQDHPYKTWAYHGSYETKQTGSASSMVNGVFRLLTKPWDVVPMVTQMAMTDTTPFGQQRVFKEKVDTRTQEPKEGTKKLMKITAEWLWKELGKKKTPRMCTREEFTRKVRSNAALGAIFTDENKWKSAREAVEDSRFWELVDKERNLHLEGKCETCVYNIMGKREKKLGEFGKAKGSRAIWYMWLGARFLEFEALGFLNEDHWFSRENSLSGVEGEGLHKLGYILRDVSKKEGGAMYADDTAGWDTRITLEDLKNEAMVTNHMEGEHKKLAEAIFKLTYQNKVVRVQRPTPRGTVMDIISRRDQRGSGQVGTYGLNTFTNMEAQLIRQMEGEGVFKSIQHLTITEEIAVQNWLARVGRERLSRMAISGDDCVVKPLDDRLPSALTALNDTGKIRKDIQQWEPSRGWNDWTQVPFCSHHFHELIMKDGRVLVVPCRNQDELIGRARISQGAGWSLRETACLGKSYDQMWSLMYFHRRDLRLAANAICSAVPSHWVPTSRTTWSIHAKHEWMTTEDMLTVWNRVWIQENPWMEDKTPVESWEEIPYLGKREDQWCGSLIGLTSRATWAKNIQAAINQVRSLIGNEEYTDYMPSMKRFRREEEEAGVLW

[19] = test system: Vero; test: Vero cell cytotoxicity, cytotoxicity control for flavivirus capping enzyme inhibitors (AID 588742); assay type: functional; details: Chlorocebus sabaeus
[20] = test system: H9c2; test: cells; assay type: functional, cell-based; details: Rattus norvegicus, H9c2, Myocardium;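 further: confirmatory concentration-response retest of ultra-high-throughput screening hits for modulation of myocardial damage; cell death induced by hydrogen peroxide oxidative stress; compound pretreatment for 60 min then peroxide exposure for 2 h; potency is for protecting the cells against peroxide damage rather than for killing them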
[21] = target: T5, Corticotropin-releasing factor receptor 2/Corticotropin-releasing factor-binding protein (Homo sapiens, UniProt P24387+Q13324); test: activators of CRF receptor 2 with binding protein – uHTS hits, confirmation (AID 602473); assay type: functional; details: read-out: EC50_Mean
T5 sequence (Q13324 whole entry): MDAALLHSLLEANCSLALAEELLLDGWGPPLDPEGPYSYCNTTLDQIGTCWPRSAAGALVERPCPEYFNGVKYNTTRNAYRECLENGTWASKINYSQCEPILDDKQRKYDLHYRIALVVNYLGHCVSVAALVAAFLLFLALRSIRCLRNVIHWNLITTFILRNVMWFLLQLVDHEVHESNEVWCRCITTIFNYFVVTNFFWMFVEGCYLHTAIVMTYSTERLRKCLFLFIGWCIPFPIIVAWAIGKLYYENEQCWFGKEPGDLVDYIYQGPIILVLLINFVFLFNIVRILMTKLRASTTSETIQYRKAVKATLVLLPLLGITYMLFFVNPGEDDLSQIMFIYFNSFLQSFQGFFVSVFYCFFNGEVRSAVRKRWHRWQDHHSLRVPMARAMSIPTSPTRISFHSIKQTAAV
T5 sequence (P24387 whole entry): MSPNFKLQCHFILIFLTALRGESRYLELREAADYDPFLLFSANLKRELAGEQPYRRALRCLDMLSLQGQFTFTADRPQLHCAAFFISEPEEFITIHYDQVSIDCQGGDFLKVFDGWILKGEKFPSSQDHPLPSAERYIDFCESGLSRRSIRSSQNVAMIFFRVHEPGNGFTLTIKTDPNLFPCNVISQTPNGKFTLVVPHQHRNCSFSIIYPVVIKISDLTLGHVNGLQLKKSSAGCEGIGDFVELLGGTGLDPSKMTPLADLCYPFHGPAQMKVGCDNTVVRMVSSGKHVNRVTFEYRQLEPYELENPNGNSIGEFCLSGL

[22] = THP-1 cell cytotoxicity, cytotoxicity control, set 4 (AID 504911); assay type: functional; details: Mycobacterium tuberculosis

COc1ccc2c(c1)Cc1sc(NC(=O)c3ccccc3)nc1-2
EC50 [1]: 31.3 µM (active) | EC50 [2]: 42.4 µM (active) | IC50 [3]: > 100 µM (inactive) | IC50 [4]: 27.5 µM (active) | EC50 [5]: 4.58 µM (active)

CC1CC2(CCCCC2)N2C(=O)C(=O)c3cccc1c32 (configuration not stated)
AC50 [6]: 25.1 µM (inconclusive) | IC50 [4]: 24.4 µM (active)

COc1cccc2c1C(=O)C=C(C)C2=O
AC50 [7]: 7.83 µM (active) | AC50 [8]: 37.8 µM (active) | IC50 [4]: 14.4 µM (active)

CC(=O)Nc1cc(-c2ccccc2F)cn2c(-c3cccc(C(F)(F)F)c3)cnc12
EC50 [9]: > 89.2 µM (inactive)

CC1=C(CO)C(=O)OC([C@@H](C)C2CC[C@H]3C4C[C@H]5O[C@]56[C@@H](O)C=CC(=O)[C@]6(C)C4CC[C@]23C)C1 (some centres not stated)
IC50 [10]: > 64.6 µM (inactive) | AC50 [11]: 0.674 µM (active) | EC50 [1]: > 120 µM (not active) | IC50 [12]: > 64.6 µM (inactive) | AC50 [13]: 7.49 µM (active) | EC50 [2]: > 120 µM (not active) | AC50 [14]: 1.99 µM (active) | AC50 [15]: 0.982 µM (active) | AC50 [16]: 9.71 µM (active) | IC50 [17]: 2.65 µM (active) | EC50 [5]: > 120 µM (not active)

NC(=O)C1=C(c2ccccc2)c2ccccc2C1=O
IC50 [18]: 59.5 µM (active) | CC50 [19]: 32.1 µM (active) | IC50 [20]: > 79 µM (inactive) | EC50 [21]: 11.9 µM (active)

CCCc1cc(C(N)=S)ccn1 [PROTIONAMIDE]
CC50 [22]: > 100 µM (active)
